Results taken from patent US20250032409A1, “TREATMENT OF LOW-GRADE INTERMEDIATE-RISK NON-MUSCLE-INVASIVE BLADDER CANCER WITH A THERMALLY GELLING PHARMACEUTICAL COMPOSITION CONTAINING MITOMYCIN” (priority 2023, published 2025).

What was measured:
LG NMIBC = conditions: dose-intensive administration as primary therapy for LG NMIBC; cited from earlier work
[1] = OPTIMA II: mitomycin plasma concentrations; format: in vivo, human
[2] = human, plasma, other: instillation, read-out: Mitomycin plasma concentration, mean (standard deviation)

For CO[C@@]12[C@H](COC(N)=O)C3=C(C(=O)C(C)=C(N)C3=O)N1C[C@@H]1N[C@@H]12 [Mitomycin], the CR rates (LG NMIBC) is given as 50-60%, the “Mitomycin plasma concentration, mean (standard deviation)” value ([1]; Pre-instillation, 6 patients, UGN-102) is given as 0 ng/mL and the AUC ([1]; human, plasma, other: instillation, read-out: Concentration-time Curve (AUC) - Mean (standard deviation)) is given as 5.69 ng·h/mL. It also gave a concentration at 0.5 h [1, 2] of 0.75 ng/mL, a concentration at 1 h [1, 2] of 0.6 ng/mL and a concentration at 2 h [1, 2] of 0.34 ng/mL. It also gave a concentration at 3 h [1, 2] of 1.88 ng/mL, a concentration at 4 h [1, 2] of 1.93 ng/mL and a concentration at 5 h [1, 2] of 0.57 ng/mL. The concentration at 6 h [1, 2] was 0.32 ng/mL and the Cmax ([1]; human, plasma, other: intravesical instillation (via urethral catheter), read-out: Concentration (Cmax)) was 2.27 ng/mL.
